Source: patent US10988524B2, “Modified relaxin B chain peptides and their therapeutic use” (priority 2018, dated 2021)
Non-standard residues stand in square brackets, D forms with d. Residues, ends and D or L forms follow the SMILES beside them. Phe(4-F) = N[C@@H](Cc1ccc(F)cc1)C(=O)O; Nle = CCCC[C@H](N)C(=O)O; Aib = CC(C)(N)C(=O)O

Legend:
RXFP1 = target: T1, RXFP1 (Homo sapiens, UniProt Q9HBX9); assay: OVCAR5 cAMP assay (RXFP1 agonist activity, HTRF); settings: for Emax: OVCAR-5, read-out: cAMP assay in OVCAR 5 cells Emax, maximal intracellular cAMP relative to H2-relaxin in the same test occasion; for EC50: cAMP assay in OVCAR 5 cells EC50 (nM), OVCAR5 cells expressing endogenous RXFP1, cAMP by HTRF, 30 min at 37° C., 1 mM IBMX
T1 sequence (Q9HBX9 1-757): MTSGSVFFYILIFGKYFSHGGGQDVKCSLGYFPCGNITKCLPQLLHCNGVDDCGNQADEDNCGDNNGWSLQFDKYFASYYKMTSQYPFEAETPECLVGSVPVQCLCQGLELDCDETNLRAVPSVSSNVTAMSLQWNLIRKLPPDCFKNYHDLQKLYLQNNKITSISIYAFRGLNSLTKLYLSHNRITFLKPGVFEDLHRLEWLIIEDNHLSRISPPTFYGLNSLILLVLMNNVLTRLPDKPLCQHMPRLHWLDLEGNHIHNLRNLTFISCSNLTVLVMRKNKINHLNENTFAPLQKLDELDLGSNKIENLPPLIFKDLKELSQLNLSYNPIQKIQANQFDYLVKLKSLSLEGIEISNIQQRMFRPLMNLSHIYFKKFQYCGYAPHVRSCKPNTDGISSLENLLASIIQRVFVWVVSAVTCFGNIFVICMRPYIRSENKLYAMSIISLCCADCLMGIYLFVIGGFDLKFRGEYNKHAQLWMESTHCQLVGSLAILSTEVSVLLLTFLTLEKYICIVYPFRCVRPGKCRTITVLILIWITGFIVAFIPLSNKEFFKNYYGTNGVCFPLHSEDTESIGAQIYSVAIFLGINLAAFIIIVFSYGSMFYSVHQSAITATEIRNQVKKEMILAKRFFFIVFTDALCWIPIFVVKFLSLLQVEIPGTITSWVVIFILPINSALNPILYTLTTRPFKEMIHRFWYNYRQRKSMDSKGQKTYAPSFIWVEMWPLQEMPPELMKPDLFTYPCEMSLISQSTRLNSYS

[1] = Solubility testing of peptides in buffer; format: physicochemical; settings: Phosphate buffer 50 mM pH 7.4; target solubility 2.0 mg/ml; ~19 h; read-out: Solubility phosphate buffer pH 7.4
Stability in rat plasma = format: in vitro ADME; settings: 37° C.; for Rat plasma stability % remaining, T = 0: 5 μM; for remaining at 1 h, 5 μM / remaining at 4 h, 5 μM: rat plasma (sodium or lithium heparin)
Procedure: (§1) Prior to the testing of stability in plasma of a peptide batch, its purity (HPLC-UV) was determined.
(§2) Rat and Human plasma: anti-coagulant sodium or lithium heparin.
(§3) 100 μM solution of study compound in 50 mM Phosphate buffer pH 7.4.
(§4) 950 μL plasma is pre-incubated for 5 min at 37° C. 50 μL of compound stock solution is added. Final compound concentration=5 μM. Vortex and transfer 1504, plasma into an Eppendorf for each time point. The time points 0-1 and −4 h are carried out in duplicate for each species.
(§5) After incubation extract 1504, plasma with 6004, Acetonitrile containing with 1% TFA. Vortex and centrifuge 10 min at 14600 rpm. Dry 2004, supernatant under N2. Reconstitute sample in 200 μL of H2O/CH3CN 98/2+0.1% FA+50 ng/ml Labetalol and analyze using the analytical system used in solubility and stability studies.
(§6) For determination of the amount of the remaining peptide, the peak areas of the target compound at t0 and each time point […] were compared, resulting in “% remaining peptide”, following the equation
(§7) % remaining peptide=[(peak area peptide time)×100]/peak area peptide t0. The stability is expressed as “% remaining peptide”.

[2] = Stability in human plasma; format: in vitro ADME; settings: 37° C.; for Human Plasma stability % remaining, T = 0: 5 μM; for remaining at 1 h, 5 μM / remaining at 4 h, 5 μM: human plasma (sodium or lithium heparin)
Procedure: as §1, §2, §3, §4, §5, §6, §7

SMILES	Emax (RXFP1)	solubility [1]	cAMP assay in OVCAR 5 cells Emax (RXFP1; maximal intracellular cAMP relative to H2-relaxin in the same test occasion)	EC50 (RXFP1)	Rat plasma stability % remaining, T = 0 (Stability in rat plasma)	remaining at 1 h, 5 μM (Stability in rat plasma)	remaining at 4 h, 5 μM (Stability in rat plasma)	Human Plasma stability % remaining, T = 0 [2]	remaining at 1 h, 5 μM [2]	remaining at 4 h, 5 μM [2]
CCCC[C@H](NC(=O)CNC(=O)[C@H](CCC(=O)O)NC(=O)C(C)(C)NC(=O)C(C)(C)NC(=O)[C@@H](NC(=O)[C@H](CCC(N)=O)NC(=O)[C@H](CCCNC(=N)N)NC(=O)[C@H](CCCNC(=N)N)NC(=O)[C@@H](NC(=O)[C@H](CCCCN)NC(=O)[C@H](CCC(=O)O)NC(=O)[C@H](CCCNC(=N)N)NC(=O)CNC(=O)[C@H](CCC(=O)O)NC(=O)[C@H](CC(C)C)NC(C)=O)C(C)C)[C@@H](C)CC)C(=O)N[C@@H](CO)C(=O)N[C@H](C(=O)N[C@@H](Cc1c[nH]c2ccccc12)C(=O)N[C@@H](CO)C(=O)NC(C)(C)C(=O)N[C@@H](CCCNC(=N)N)C(=O)N[C@@H](CCCCN)C(=O)N[C@@H](CCCCN)C(N)=O)[C@@H](C)O [compound 49] (Ac-LEGREKVRRQI[Aib][Aib]EG[Nle]STWS[Aib]RKK-NH2)	95%	≥ 2500 µg/mL	–	–	–	–	–	–	–	–
CCCC[C@H](NC(=O)CNC(=O)[C@H](CCC(=O)O)NC(=O)C(C)(C)NC(=O)C(C)(C)NC(=O)[C@@H](NC(=O)[C@H](CCC(N)=O)NC(=O)[C@H](C)NC(=O)[C@H](CCCNC(=N)N)NC(=O)[C@@H](NC(=O)[C@H](CCCCN)NC(=O)[C@H](CCC(=O)O)NC(=O)[C@H](CCCNC(=N)N)NC(=O)CNC(=O)[C@H](CCC(=O)O)NC(=O)[C@H](CC(C)C)NC(C)=O)C(C)C)[C@@H](C)CC)C(=O)N[C@@H](CO)C(=O)N[C@@H](CCCNC(=N)N)C(=O)N[C@@H](Cc1c[nH]c2ccccc12)C(=O)N[C@@H](CO)C(=O)NC(C)(C)C(=O)N[C@@H](CCCNC(=N)N)C(=O)N[C@@H](CCCNC(=N)N)C(=O)N[C@@H](CCCNC(=N)N)C(N)=O [compound 55] (Ac-LEGREKVRAQI[Aib][Aib]EG[Nle]SRWS[Aib]RRR-NH2)	88%	≥ 2500 µg/mL	–	≤ 5 nM	–	–	–	–	–	–
CCCC[C@H](NC(=O)CNC(=O)[C@H](CCC(=O)O)NC(=O)C(C)(C)NC(=O)C(C)(C)NC(=O)[C@@H](NC(=O)[C@H](CCC(N)=O)NC(=O)[C@H](C)NC(=O)[C@H](CCCNC(=N)N)NC(=O)[C@@H](NC(=O)[C@H](CCCCN)NC(=O)[C@H](CCC(=O)O)NC(=O)[C@H](CCCNC(=N)N)NC(=O)CNC(=O)[C@H](CCC(=O)O)NC(=O)[C@H](CC(C)C)NC(C)=O)C(C)C)[C@@H](C)CC)C(=O)N[C@@H](CO)C(=O)N[C@@H](CCC(N)=O)C(=O)N[C@@H](Cc1c[nH]c2ccccc12)C(=O)N[C@@H](CO)C(=O)NC(C)(C)C(=O)N[C@@H](CCCNC(=N)N)C(=O)N[C@@H](CCCNC(=N)N)C(=O)N[C@@H](CCCNC(=N)N)C(N)=O [compound 52] (Ac-LEGREKVRAQI[Aib][Aib]EG[Nle]SQWS[Aib]RRR-NH2)	94%	≥ 2300 µg/mL	–	≤ 10 nM	–	–	–	–	–	–
CC[C@H](C)[C@H](NC(=O)[C@H](CCC(N)=O)NC(=O)[C@H](C)NC(=O)[C@H](CCCNC(=N)N)NC(=O)[C@@H](NC(=O)[C@H](CCCCN)NC(=O)[C@H](CCC(=O)O)NC(=O)[C@H](CCCNC(=N)N)NC(=O)CNC(=O)[C@H](CCC(=O)O)NC(=O)[C@H](CC(C)C)NC(C)=O)C(C)C)C(=O)NC(C)(C)C(=O)N[C@H](C(=O)N[C@@H](CCC(=O)O)C(=O)NCC(=O)N[C@@H](CCSC)C(=O)N[C@@H](CO)C(=O)N[C@@H](CCCCN)C(=O)N[C@@H](Cc1c[nH]c2ccccc12)C(=O)N[C@@H](CO)C(=O)N[C@@H](CCCCN)C(=O)N[C@@H](CCCNC(=N)N)C(=O)N[C@@H](CCCCN)C(=O)N[C@@H](CCCCN)C(N)=O)[C@@H](C)CC [compound 1] (Ac-LEGREKVRAQI[Aib]IEGMSKWSKRKK-NH2)	91%	–	–	–	100%	72%	17%	100%	71%	55%
CC[C@H](C)[C@H](NC(=O)[C@H](CCC(N)=O)NC(=O)[C@H](C)NC(=O)[C@H](CCCNC(=N)N)NC(=O)[C@@H](NC(=O)[C@H](CCCCN)NC(=O)[C@H](CCC(=O)O)NC(=O)[C@H](CCCNC(=N)N)NC(=O)CNC(=O)[C@H](CCC(=O)O)NC(=O)[C@H](CC(C)C)NC(C)=O)C(C)C)C(=O)NC(C)(C)C(=O)NC(C)(C)C(=O)N[C@@H](CCC(=O)O)C(=O)NCC(=O)N[C@@H](CCSC)C(=O)N[C@@H](CO)C(=O)N[C@@H](CCCCN)C(=O)N[C@@H](Cc1c[nH]c2ccccc12)C(=O)N[C@@H](CO)C(=O)N[C@@H](CCCCN)C(=O)N[C@@H](CCCNC(=N)N)C(=O)N[C@@H](CCCCN)C(=O)N[C@@H](CCCCN)C(N)=O [compound 2] (Ac-LEGREKVRAQI[Aib][Aib]EGMSKWSKRKK-NH2)	99%	–	–	–	100%	57%	24%	100%	80%	79%

Other lines, results leading:

Emax (RXFP1)	solubility [1]	cAMP assay in OVCAR 5 cells Emax (RXFP1; maximal intracellular cAMP relative to H2-relaxin in the same test occasion)	EC50 (RXFP1)	Rat plasma stability % remaining, T = 0 (Stability in rat plasma)	remaining at 1 h, 5 μM (Stability in rat plasma)	remaining at 4 h, 5 μM (Stability in rat plasma)	Human Plasma stability % remaining, T = 0 [2]	remaining at 1 h, 5 μM [2]	remaining at 4 h, 5 μM [2]	SMILES
–	≥ 2400 µg/mL	96%	–	–	–	–	–	–	–	CC[C@H](C)[C@H](NC(=O)[C@H](CCC(N)=O)NC(=O)[C@H](C)NC(=O)[C@H](CCCNC(=N)N)NC(=O)[C@@H](NC(=O)[C@H](CCCCN)NC(=O)[C@H](CCC(=O)O)NC(=O)[C@H](CCCNC(=N)N)NC(=O)CNC(=O)[C@H](CCC(=O)O)NC(=O)[C@H](CC(C)C)NC(C)=O)C(C)C)C(=O)NC(C)(C)C(=O)NC(C)(C)C(=O)N[C@@H](CCC(=O)O)C(=O)NCC(=O)N[C@@H](CCC(N)=O)C(=O)N[C@@H](CO)C(=O)N[C@H](C(=O)N[C@@H](Cc1c[nH]c2ccccc12)C(=O)N[C@@H](CO)C(=O)NC(C)(C)C(=O)N[C@@H](CCCNC(=N)N)C(=O)N[C@@H](CCCCN)C(=O)N[C@@H](CCCCN)C(N)=O)[C@@H](C)O [compound 54] (Ac-LEGREKVRAQI[Aib][Aib]EGQSTWS[Aib]RKK-NH2)
93%	≥ 2000 µg/mL	–	–	–	–	–	–	–	–	CC[C@H](C)[C@H](NC(=O)[C@H](CCC(N)=O)NC(=O)[C@H](C)NC(=O)[C@H](CCCNC(=N)N)NC(=O)[C@@H](NC(=O)[C@H](CCCCN)NC(=O)[C@H](CCC(=O)O)NC(=O)[C@H](CCCNC(=N)N)NC(=O)CNC(=O)[C@H](CCC(=O)O)NC(=O)[C@H](CC(C)C)NC(C)=O)C(C)C)C(=O)NC(C)(C)C(=O)NC(C)(C)C(=O)N[C@@H](CCC(=O)O)C(=O)NCC(=O)N[C@@H](CCC(N)=O)C(=O)N[C@@H](CO)C(=O)N[C@H](C(=O)N[C@@H](Cc1ccc(O)cc1)C(=O)N[C@@H](CO)C(=O)NC(C)(C)C(=O)N[C@@H](CCCNC(=N)N)C(=O)N[C@@H](CCCCN)C(=O)N[C@@H](CCCCN)C(N)=O)[C@@H](C)O [compound 58] (Ac-LEGREKVRAQI[Aib][Aib]EGQSTYS[Aib]RKK-NH2)
86%	≥ 2400 µg/mL	–	–	–	–	–	–	–	–	CC[C@H](C)[C@H](NC(=O)[C@H](CCC(N)=O)NC(=O)[C@H](C)NC(=O)[C@H](CCCNC(=N)N)NC(=O)[C@@H](NC(=O)[C@H](CCCCN)NC(=O)[C@H](CCC(=O)O)NC(=O)[C@H](CCCNC(=N)N)NC(=O)CNC(=O)[C@H](CCC(=O)O)NC(=O)[C@H](CC(C)C)NC(C)=O)C(C)C)C(=O)NC(C)(C)C(=O)NC(C)(C)C(=O)N[C@@H](CCC(=O)O)C(=O)NCC(=O)N[C@@H](CCC(N)=O)C(=O)N[C@@H](CO)C(=O)N[C@H](C(=O)N[C@@H](Cc1ccc(F)cc1)C(=O)N[C@@H](CO)C(=O)NC(C)(C)C(=O)N[C@@H](CCCNC(=N)N)C(=O)N[C@@H](CCCCN)C(=O)N[C@@H](CCCCN)C(N)=O)[C@@H](C)O [compound 59] (Ac-LEGREKVRAQI[Aib][Aib]EGQST[Phe(4-F)]S[Aib]RKK-NH2)
